# Values of other authors as cited in PubChem BioAssay AID1259409 (Chemical Carcinogenesis Research Information System (CCRIS), 2018).
# Several values for one entry are separate records, joined by “and”; a condition that tells them apart may be missing. Equal entries are not always repeated.
# Test system: rodent chemically induced tumor inhibition, incidence and multiplicity
# Test: CCRIS tumor inhibitor studies
# Conditions: Dose [Inhibitor]: 0
smiles,measurement,setting,value
CCCC[C@@H](C)[C@@H](OC(=O)C[C@@H](CC(=O)O)C(=O)O)[C@H](C[C@@H](C)C[C@H](O)CCCC[C@@H](O)C[C@H](O)[C@H](C)N)OC(=O)C[C@@H](CC(=O)O)C(=O)O,"tumour outcome (control, treated, inhibition, significance)","Carcinogen: N-METHYL-N'-NITRO-NITROSOGUANIDINE, 13830-58-5, 3.2 PPM IN FEED FOR 42 WK BEGINNING 1 MO POST CARCINOGEN TREATMENT (STUDY DURATION: 64 WK), Route [Inhibitor]: ORAL, Species: FISH, Strain/Sex: SHASTA RAINBOW TROUT/MALE,FEMALE, Target Tissue: Type of Lesion: KIDNEY: TUMOR, Dose [Carcinogen]: 35 PPM IN WATER FOR 30 MIN, Promoter: NONE","19%, 14%, 26%, not significant"
same,"tumour outcome (control, treated, inhibition, significance)","Carcinogen: N-METHYL-N'-NITRO-NITROSOGUANIDINE, 13830-58-5, 3.2 PPM IN FEED FOR 42 WK BEGINNING 1 MO POST CARCINOGEN TREATMENT (STUDY DURATION: 64 WK), Route [Inhibitor]: ORAL, Species: FISH, Strain/Sex: SHASTA RAINBOW TROUT/MALE,FEMALE, Target Tissue: Type of Lesion: LIVER: TUMOR, Dose [Carcinogen]: 35 PPM IN WATER FOR 30 MIN, Promoter: NONE","45%, 25%, 44%, not significant"
same,"tumour outcome (control, treated, inhibition, significance)","Carcinogen: N-METHYL-N'-NITRO-NITROSOGUANIDINE, 13830-58-5, 3.2 PPM IN FEED FOR 42 WK BEGINNING 1 MO POST CARCINOGEN TREATMENT (STUDY DURATION: 64 WK), Route [Inhibitor]: ORAL, Species: FISH, Strain/Sex: SHASTA RAINBOW TROUT/MALE,FEMALE, Target Tissue: Type of Lesion: STOMACH: TUMOR, Dose [Carcinogen]: 35 PPM IN WATER FOR 30 MIN, Promoter: NONE","32%, 40%, -25%, not significant"
same,"tumour outcome (control, treated, inhibition, significance)","Carcinogen: N-METHYL-N'-NITRO-NITROSOGUANIDINE, 13830-58-5, 3.2 PPM IN FEED FOR 42 WK BEGINNING 1 MO POST CARCINOGEN TREATMENT (STUDY DURATION: 64 WK), Route [Inhibitor]: ORAL, Species: FISH, Strain/Sex: SHASTA RAINBOW TROUT/MALE,FEMALE, Target Tissue: Type of Lesion: SWIM BLADDER: TUMOR, Dose [Carcinogen]: 35 PPM IN WATER FOR 30 MIN, Promoter: NONE","54%, 44%, 18%, not significant"
same,"tumour outcome (control, treated, inhibition, significance)","Carcinogen: N-METHYL-N'-NITRO-NITROSOGUANIDINE, 13830-58-5, 23 PPM IN FEED FOR 42 WK BEGINNING 1 MO POST CARCINOGEN TREATMENT (STUDY DURATION: 64 WK), Route [Inhibitor]: ORAL, Species: FISH, Strain/Sex: SHASTA RAINBOW TROUT/MALE,FEMALE, Target Tissue: Type of Lesion: KIDNEY: TUMOR, Dose [Carcinogen]: 35 PPM IN WATER FOR 30 MIN, Promoter: NONE","19%, 13%, 32%, not significant"
same,"tumour outcome (control, treated, inhibition, significance)","Carcinogen: N-METHYL-N'-NITRO-NITROSOGUANIDINE, 13830-58-5, 23 PPM IN FEED FOR 42 WK BEGINNING 1 MO POST CARCINOGEN TREATMENT (STUDY DURATION: 64 WK), Route [Inhibitor]: ORAL, Species: FISH, Strain/Sex: SHASTA RAINBOW TROUT/MALE,FEMALE, Target Tissue: Type of Lesion: STOMACH: TUMOR, Dose [Carcinogen]: 35 PPM IN WATER FOR 30 MIN, Promoter: NONE","32%, 31%, 3%, not significant"
same,"tumour outcome (control, treated, inhibition, significance)","Carcinogen: N-METHYL-N'-NITRO-NITROSOGUANIDINE, 13830-58-5, 104 PPM IN FEED FOR 42 WK BEGINNING 1 MO POST CARCINOGEN TREATMENT (STUDY DURATION: 64 WK), Route [Inhibitor]: ORAL, Species: FISH, Strain/Sex: SHASTA RAINBOW TROUT/MALE,FEMALE, Target Tissue: Type of Lesion: KIDNEY: TUMOR, Dose [Carcinogen]: 35 PPM IN WATER FOR 30 MIN, Promoter: NONE","19%, 6%, 68%, p<0.05"
same,"tumour outcome (control, treated, inhibition, significance)","Carcinogen: N-METHYL-N'-NITRO-NITROSOGUANIDINE, 13830-58-5, 104 PPM IN FEED FOR 42 WK BEGINNING 1 MO POST CARCINOGEN TREATMENT (STUDY DURATION: 64 WK), Route [Inhibitor]: ORAL, Species: FISH, Strain/Sex: SHASTA RAINBOW TROUT/MALE,FEMALE, Target Tissue: Type of Lesion: LIVER: TUMOR, Dose [Carcinogen]: 35 PPM IN WATER FOR 30 MIN, Promoter: NONE","45%, 76%, -69%, p<0.05"
same,"tumour outcome (control, treated, inhibition, significance)","Carcinogen: N-METHYL-N'-NITRO-NITROSOGUANIDINE, 13830-58-5, 104 PPM IN FEED FOR 42 WK BEGINNING 1 MO POST CARCINOGEN TREATMENT (STUDY DURATION: 64 WK), Route [Inhibitor]: ORAL, Species: FISH, Strain/Sex: SHASTA RAINBOW TROUT/MALE,FEMALE, Target Tissue: Type of Lesion: STOMACH: TUMOR, Dose [Carcinogen]: 35 PPM IN WATER FOR 30 MIN, Promoter: NONE","32%, 12%, 62%, p<0.05 and 54%, 51%, 6%, not significant"
[Cl][Cd][Cl],"tumour outcome (control, treated, inhibition, significance)","Carcinogen: DIETHYLNITROSAMINE, 55-18-5, 500 PPM IN DRINKING WATER BEGINNING 2 WK POST CARCINOGEN DOSE AND CONTINUING FOR DURATION OF STUDY (STUDY DURATION: 5, Route [Inhibitor]: ORAL, Species: MOUSE, Strain/Sex: B6C3F1/MALE, Target Tissue: Type of Lesion: LIVER: TUMOR, Dose [Carcinogen]: 90 MG/KG IN TRICAPRYLIN (5 MG/ML) ONCE, Promoter: NONE USED","13/45 (29%), 3/42 (7%), 76%, p<0.05"
same,"tumour outcome (control, treated, inhibition, significance)","Carcinogen: DIETHYLNITROSAMINE, 55-18-5, 500 PPM IN DRINKING WATER BEGINNING 2 WK POST CARCINOGEN DOSE AND CONTINUING FOR DURATION OF STUDY (STUDY DURATION: 5, Route [Inhibitor]: ORAL, Species: MOUSE, Strain/Sex: B6C3F1/MALE, Target Tissue: Type of Lesion: LUNG: TUMOR, Dose [Carcinogen]: 90 MG/KG IN TRICAPRYLIN (5 MG/ML) ONCE, Promoter: NONE USED","15/45 (33%), 11/42 (26%), 21%, not calculated"
same,"tumour outcome (control, treated, inhibition, significance)","Carcinogen: DIETHYLNITROSAMINE, 55-18-5, 1000 PPM IN DRINKING WATER BEGINNING 2 WK POST CARCINOGEN DOSE AND CONTINUING FOR DURATION OF STUDY (STUDY DURATION:, Route [Inhibitor]: ORAL, Species: MOUSE, Strain/Sex: B6C3F1/MALE, Target Tissue: Type of Lesion: LIVER: TUMOR, Dose [Carcinogen]: 90 MG/KG IN TRICAPRYLIN (5 MG/ML) ONCE, Promoter: NONE USED","13/45 (29%), 0/47 (0%), 100%, p<0.05"
same,"tumour outcome (control, treated, inhibition, significance)","Carcinogen: DIETHYLNITROSAMINE, 55-18-5, 1000 PPM IN DRINKING WATER BEGINNING 2 WK POST CARCINOGEN DOSE AND CONTINUING FOR DURATION OF STUDY (STUDY DURATION:, Route [Inhibitor]: ORAL, Species: MOUSE, Strain/Sex: B6C3F1/MALE, Target Tissue: Type of Lesion: LUNG: TUMOR, Dose [Carcinogen]: 90 MG/KG IN TRICAPRYLIN (5 MG/ML) ONCE, Promoter: NONE USED","15/45 (33%), 1/47 (2%), 94%, p<0.05"
CC[C@@H](C)[C@@H](N)C(=O)OC,"tumour outcome (control, treated, inhibition, significance)","Carcinogen: 7,12-DIMETHYLBENZ[A]ANTHRACENE, 57-97-6, 1 MG IN 0.2 ML ACETONE APPLIED 30 MIN AFTER EACH MEZEREIN DOSE (STUDY DURATION: 20 WK), Route [Inhibitor]: DERMAL, Species: MOUSE, Strain/Sex: SENCAR/FEMALE, Target Tissue: Type of Lesion: SKIN: PAPILLOMA, Dose [Carcinogen]: 0.1 UMOL IN 0.2 ML ACETONE ONCE, Promoter: TPA, 16561-29-8, MEZEREIN, 37807-41-5, Promoter: TPA, 16561-29-8, MEZEREIN, 37807-41-5","100%, 76%, 24%, p<0.005"
same,"tumour outcome (control, treated, inhibition, significance)","Carcinogen: 7,12-DIMETHYLBENZ[A]ANTHRACENE, 57-97-6, 1 MG IN 0.2 ML ACETONE APPLIED 30 MIN AFTER EACH TPA DOSE (STUDY DURATION: 20 WK), Route [Inhibitor]: DERMAL, Species: MOUSE, Strain/Sex: SENCAR/FEMALE, Target Tissue: Type of Lesion: SKIN: PAPILLOMA, Dose [Carcinogen]: 0.1 UMOL IN 0.2 ML ACETONE ONCE, Promoter: TPA, 16561-29-8, MEZEREIN, 37807-41-5, Promoter: TPA, 16561-29-8, MEZEREIN, 37807-41-5","100%, 83%, 17%, p<0.005"
COC(=O)/C(C)=C/C=C/C(C)=C\C=C\C=C(C)\C=C\C=C(C)\C=C\C1=C(C)CCCC1(C)C,"tumour outcome (control, treated, inhibition, significance)","Carcinogen: BENZO[A]PYRENE, 50-32-8, 4.7 MICROMOLAR/D IN 0.1 ML PEANUT OIL BEGINNING 2 WK PRIOR TO CARCINOGEN TREATMENT AND CONTINUING TO 2 WK POST CARCIN, Route [Inhibitor]: GAVAGE, Species: MOUSE, Strain/Sex: SWISS/FEMALE, Target Tissue: Type of Lesion: FORESTOMACH: TUMOR, Dose [Carcinogen]: 1 MG 2/WK IN 0.1 ML PEANUT OIL FOR 4 WK, Promoter: NONE USED","20/20 (100%), 4/20 (20%), 80%, p<0.001"
